“And” between values parts separate entries of the source, which are not always exact repeats. Equal values may be shown once. Read-outs that look alike come from different tables or passages of the source.
Columns and labels:
U266 [1] = system: U266
OVCAR-3 = test: Cell growth inhibition (resazurin), OVCAR-3
U266 [2] = test: Cell growth inhibition (resazurin), U266; conditions: for EC50: 48 hours drug exposure
MDA-MB-231 = test: Cell growth inhibition (resazurin), MDA-MB-231; conditions: for EC50: Homo sapiens, MDA-MB-231, 48 h, read-out: EC50 against MDA-MB-231; for cytotoxicity against MDA-MB-231, in words: from EC50 values
RPMI 8226 = test: Cell growth inhibition (resazurin), RPMI 8226; conditions: for EC50: 48 hours drug exposure; for cytotoxicity against RPMI 8226, in words: from EC50 values
B16-F10 [3] = test: Cell growth inhibition (resazurin), B16-F10; conditions: 48 hours drug exposure, mean ± SD where n≥3
HL-60 = test: Cell growth inhibition (resazurin), HL-60; assay type: cell-based, human; conditions: for EC50: Table 4, 48 hours drug exposure; for cytotoxic activity against HL-60, in words: from EC50 values
HT-29 = test: Cell growth inhibition (resazurin), HT-29; conditions: for cytotoxicity against HT-29, in words: from EC50 values
B16-F10 [4] = system: B16-F10
[5] = target: T1, trypsin-like activity of purified rabbit muscle 20S proteasome (Oryctolagus cuniculus, UniProt G1SWK8); test: In vitro inhibition of 20S proteasome trypsin-like activity (Boc-LRR-AMC)
T1 sequence (G1SWK8 1-271): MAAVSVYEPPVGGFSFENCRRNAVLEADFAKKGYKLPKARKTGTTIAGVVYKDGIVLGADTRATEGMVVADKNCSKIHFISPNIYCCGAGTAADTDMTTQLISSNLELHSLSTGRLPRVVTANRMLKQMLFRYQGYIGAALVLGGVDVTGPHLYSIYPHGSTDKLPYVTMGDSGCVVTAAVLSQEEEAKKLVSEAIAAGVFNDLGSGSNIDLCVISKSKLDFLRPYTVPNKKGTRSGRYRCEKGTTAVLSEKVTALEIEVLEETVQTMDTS

NF-κB = test: NF-κB-mediated luciferase reporter gene assay, HEK293 NF-κB/Luc cells, TNF-α stimulation; assay type: cell-based, human; conditions: for EC50: 1 hr pretreatment, TNF-α 6 hr; for effect on luciferase activity upon TNF-α stimulation, in words: pretreatment of NF-κB/Luc 293 cells
How it was run: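 Cells seeded at 1.5×10^4/well in phenol-red free DMEM, pretreated 1 h with 8-point half-log compound dilutions (DMSO stocks), then stimulated with TNF-α (10 μl of 50 ng/ml solution) for 6 h. Luciferase read as RLU after 10 min with Steady Lite reagent at room temperature.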

[6] = target: T2, caspase-like activity of purified rabbit muscle 20S proteasome (Oryctolagus cuniculus, UniProt A0A5F9DQW2); test: In vitro inhibition of 20S proteasome caspase-like activity (Z-LLE-AMC)
T2 sequence (A0A5F9DQW2 1-212): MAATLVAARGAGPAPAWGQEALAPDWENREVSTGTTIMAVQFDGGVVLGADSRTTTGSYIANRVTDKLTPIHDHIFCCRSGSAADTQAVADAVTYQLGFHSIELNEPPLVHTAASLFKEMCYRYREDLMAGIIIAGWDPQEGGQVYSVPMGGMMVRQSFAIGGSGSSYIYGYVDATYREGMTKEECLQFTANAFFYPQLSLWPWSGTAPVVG

NCI-H292 = test: Cell growth inhibition (resazurin), NCI-H292; conditions: from EC50 values
PC-3 = test: Cell growth inhibition (resazurin), PC-3; assay type: cell-based, human; conditions: from EC50 values
[7] = target: T3, chymotrypsin-like activity of purified rabbit muscle 20S proteasome (Oryctolagus cuniculus, UniProt G1T4Q9); test: In vitro inhibition of 20S proteasome chymotrypsin-like activity (suc-LLVY-AMC)
T3 sequence (G1T4Q9 1-263): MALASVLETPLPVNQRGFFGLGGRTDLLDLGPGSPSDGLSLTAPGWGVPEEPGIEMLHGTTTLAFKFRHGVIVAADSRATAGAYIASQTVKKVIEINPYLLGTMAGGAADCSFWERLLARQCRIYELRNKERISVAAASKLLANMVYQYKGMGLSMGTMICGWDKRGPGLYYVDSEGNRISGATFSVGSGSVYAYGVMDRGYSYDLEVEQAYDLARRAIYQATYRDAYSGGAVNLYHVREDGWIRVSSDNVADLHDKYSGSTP

MES-SA = test: Cell growth inhibition (resazurin), MES-SA; assay type: cell-based, human; conditions: for cytotoxic activity against MES-SA, in words: from EC50 values
MES-SA/Dx5 = test: Cell growth inhibition (resazurin), multidrug resistant MES-SA/Dx5; assay type: cell-based, human; conditions: from EC50 values
HL-60/MX2 = test: Cell growth inhibition (resazurin), multidrug resistant HL-60/MX2; conditions: from EC50 values
Protocol: Concentrations ranging from 6.32 μM to 2 nM were tested for II-2 and II-4.
HL-60/MX2 is a multidrug resistant tumor cell line derived from the human promyelocytic leukemia cell line, HL-60 and expresses reduced topoisomerase II activity. […] Mitoxantrone, the topoisomerase II targeting agent was included as a control.

[8] = target: T1, trypsin-like activity of purified rabbit muscle 20S proteasome; test: biochemical
[9] = Homo sapiens, RPMI-8226, 48 h, read-out: RPMI 8226 EC50, Table 2, mean ± SD where n≥3
[10] = read-out: RPMI 8226 EC50, Table 2, mean ± SD where n≥3
[11] = EC50 values, chymotrypsin-like activity

C[C@@]12OC(=O)[C@]1([C@@H](O)C1CCCCC1)NC(=O)[C@@H]2CCCl [Formula II-2]
cytotoxicity against U266, in words (U266 [1]): cytotoxic
cytotoxicity against OVCAR-3, in words (OVCAR-3; from EC50 values): cytotoxic
EC50 (U266 [2]; Homo sapiens, U-266, 48 h, read-out: U266 EC50, Table 2): 39 nM
EC50 (U266 [2]; read-out: U266 EC50, Table 2): 32 nM
EC50 (MDA-MB-231): 121 ± 23 nM
cytotoxicity against MDA-MB-231, in words (MDA-MB-231): cytotoxic
EC50 (RPMI 8226; Homo sapiens, RPMI-8226, 48 h, read-out: EC50 against RPMI 8226, Table 1): 49 nM
EC50 (RPMI 8226; [9]): 49 nM
cytotoxicity against RPMI 8226, in words (RPMI 8226): cytotoxic
EC50 (RPMI 8226; [10]): 45 nM
EC50 (B16-F10 [3]; Mus musculus, B16-F10, 48 h, read-out: EC50 against B16-F10, Table 1): 194 nM
EC50 (B16-F10 [3]; read-out: EC50 against B16-F10, Table 1): 180 nM
EC50 (HL-60; Homo sapiens, HL-60, 48 h): 237 nM
EC50 (HL-60): 176 nM
cytotoxic activity against HL-60, in words (HL-60): retained cytotoxic activity
EC50 (HT-29; Homo sapiens, HT-29, 48 h, read-out: EC50 against HT-29): 129 ± 21 nM
cytotoxicity against HT-29, in words (HT-29): cytotoxic
cytotoxicity against B16-F10, in words (B16-F10 [4]): cytotoxic
inhibition of the trypsin-like activity of the 20S proteasome, in words ([5]; under the conditions tested): able to inhibit
EC50 (NF-κB; Homo sapiens, HEK293, read-out: EC50, NF-κB-mediated luciferase reporter gene assay, Table 5, values in nM): 71 ± 20 nM
effect on luciferase activity upon TNF-α stimulation, in words (NF-κB): dose-dependent decrease
EC50 ([6]; EC50 Caspase-like, Table 6, values in μM): 1.3 µM and 1.7 µM
EC50 ([6]; EC50 values, caspase-like activity, range in mixed units, summary of Table 6, range from nM to μM): 0.956 to 8.7 µM
cytotoxicity against NCI-H292, in words (NCI-H292): cytotoxic
cytotoxicity against PC-3, in words (PC-3): cytotoxic
EC50 [7, 11]: 13 to 88 nM
EC50 ([7]; read-out: EC50 Chymotrypsin-like): 19 nM
cytotoxic activity against MES-SA, in words (MES-SA): cytotoxic activity
cytotoxic activity against MES-SA/Dx5, in words (MES-SA/Dx5): cytotoxic activity
cytotoxic activity against HL-60/MX2, in words (HL-60/MX2): retained cytotoxic activity

C[C@@]12OC(=O)[C@]1([C@@H](O)C1CCCCC1)NC(=O)[C@@H]2CCBr [Formula II-4]
EC50 (OVCAR-3; Homo sapiens, OVCAR-3, 48 h, read-out: EC50 against OVCAR-3): > 6320 nM
cytotoxicity against U266, in words (U266 [2]; from EC50 values): cytotoxic
EC50 (U266 [2]; read-out: U266 EC50, Table 2): 34 nM
EC50 (MDA-MB-231): 114 ± 4 nM
cytotoxicity against MDA-MB-231, in words (MDA-MB-231): cytotoxic
EC50 (RPMI 8226; [9]): 57 nM
cytotoxicity against RPMI 8226, in words (RPMI 8226): cytotoxic
EC50 (RPMI 8226; [10]): 51 nM
EC50 (HL-60; Homo sapiens, HL-60, 48 h): 143 nM
cytotoxic activity against HL-60, in words (HL-60): retained cytotoxic activity
cytotoxicity against HT-29, in words (HT-29): cytotoxic
cytotoxicity against B16-F10, in words (B16-F10 [4]): cytotoxic
inhibition of the trypsin-like activity of the 20S proteasome, in words [5]: able to inhibit
EC50 ([5]; read-out: EC50 Trypsin-like): 110 nM
EC50 (NF-κB; Homo sapiens, HEK293, Table 5, values printed in nM, read-out: EC50, NF-κB-mediated luciferase reporter gene assay): 67 nM
effect on luciferase activity upon TNF-α stimulation, in words (NF-κB): dose-dependent decrease
EC50 (NF-κB; read-out: EC50, NF-κB-mediated luciferase reporter gene assay, Table 5, values in nM): 88 nM
EC50 ([6]; EC50 Caspase-like, Table 6, values in nM): 0.85 µM and 0.637 µM
EC50 ([6]; EC50 values, caspase-like activity, summary of Table 6): 0.213 to 0.85 µM
EC50 [8]: 107 nM
cytotoxicity against NCI-H292, in words (NCI-H292): cytotoxic
cytotoxicity against PC-3, in words (PC-3): cytotoxic
EC50 ([7]; EC50 Chymotrypsin-like, Table 6, values in nM): 13 nM
EC50 [7, 11]: 13 to 88 nM
EC50 (MES-SA; Homo sapiens, MES-SA, 48 h, Table 3, 48 hours drug exposure): 140 nM
cytotoxic activity against MES-SA, in words (MES-SA): cytotoxic activity
cytotoxic activity against HL-60/MX2, in words (HL-60/MX2): retained cytotoxic activity

Source: patent US7544814B2, “[3.2.0] Heterocyclic compounds and methods of using the same” (Nereus Pharmaceuticals, Inc., priority 2004, dated 2009)
